# ChEMBL document CHEMBL1201862, “PubChem BioAssay data set” (2004)
# Calls of active or inactive are those of the source.
# Legend:
# [1] = target: Luciferin 4-monooxygenase (Photinus pyralis, UniProt P08659); test: Counter Screen for Luciferase-based Assay Positives. [Related pubchem assays: 620, 618, 411 ]
# HT-1080 = test: cytotoxicity in HT1080 fibrosarcoma cells, cell-based, fluorescence readout (AID 620); type: functional; conditions: Homo sapiens
# [2] = target: T1, Trace amine-associated receptor 1 (Homo sapiens, UniProt Q96RJ0); test: Counterscreen for agonists of the human trace amine associated receptor 1 (hTAAR1): Fluorescence-based cell-based high throughput dose response assay to identify hTAAR1 agonist that also desensitize TAAR1 receptor response.; type: functional
# T1 sequence (Q96RJ0 whole entry): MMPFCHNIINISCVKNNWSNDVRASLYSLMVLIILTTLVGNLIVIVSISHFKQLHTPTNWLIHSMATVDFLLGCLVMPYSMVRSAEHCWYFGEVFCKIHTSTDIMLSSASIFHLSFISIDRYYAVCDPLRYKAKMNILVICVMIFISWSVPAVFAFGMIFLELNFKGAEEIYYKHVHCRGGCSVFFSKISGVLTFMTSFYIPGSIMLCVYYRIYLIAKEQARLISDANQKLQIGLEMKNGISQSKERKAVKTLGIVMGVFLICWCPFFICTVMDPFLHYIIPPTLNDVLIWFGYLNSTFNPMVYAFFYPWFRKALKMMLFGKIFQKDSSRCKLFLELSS
# [3] = target: T1, Trace amine-associated receptor 1; test: Fluorescence-based cell-based high throughput dose response assay to identify agonists of the human trace amine associated receptor 1 (TAAR1).; type: functional
# cells [4] = type: functional, cell-based
# cells [5] = type: functional, cell-based; remark: listed apart in the source
# [6] = cytotoxicity in KRAS-transformed pancreatic duct cells, primary screen, cell-based, fluorescence, HTS (AID 431); type: functional; conditions: Homo sapiens;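 further: cell line used: HPDE-C7K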
# [7] = cytotoxicity in HPDE-C7 cells, cell-based, fluorescence, HTS (AID 430); type: functional; conditions: Homo sapiens
# [8] = target: Peroxisome proliferator-activated receptor gamma/Nuclear receptor coactivator 2 (Homo sapiens, UniProt P37231); type: functional;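 further: agonist potency for raising coactivator recruitment to the receptor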
# [9] = target: Peroxisome proliferator-activated receptor gamma/Nuclear receptor coactivator 1 (Homo sapiens, UniProt P37231); type: functional;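 further: agonist potency as compounds enhance coactivator SRC-1 recruitment to PPARgamma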
# [10] = target: Peroxisome proliferator-activated receptor gamma/Nuclear receptor coactivator 3 (Homo sapiens, UniProt P37231); type: functional;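 further: agonist potency for raising coactivator recruitment to the receptor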
# [11] = target: T2, Microphthalmia-associated transcription factor (Homo sapiens, UniProt O75030); test: TRPM1 promoter luciferase signal decrease, dose response, MITF inhibitor project, cell-based, SK-MEL-5, cherry-picked, set 3 (AID 493073); type: functional
# T2 sequence (O75030 whole entry): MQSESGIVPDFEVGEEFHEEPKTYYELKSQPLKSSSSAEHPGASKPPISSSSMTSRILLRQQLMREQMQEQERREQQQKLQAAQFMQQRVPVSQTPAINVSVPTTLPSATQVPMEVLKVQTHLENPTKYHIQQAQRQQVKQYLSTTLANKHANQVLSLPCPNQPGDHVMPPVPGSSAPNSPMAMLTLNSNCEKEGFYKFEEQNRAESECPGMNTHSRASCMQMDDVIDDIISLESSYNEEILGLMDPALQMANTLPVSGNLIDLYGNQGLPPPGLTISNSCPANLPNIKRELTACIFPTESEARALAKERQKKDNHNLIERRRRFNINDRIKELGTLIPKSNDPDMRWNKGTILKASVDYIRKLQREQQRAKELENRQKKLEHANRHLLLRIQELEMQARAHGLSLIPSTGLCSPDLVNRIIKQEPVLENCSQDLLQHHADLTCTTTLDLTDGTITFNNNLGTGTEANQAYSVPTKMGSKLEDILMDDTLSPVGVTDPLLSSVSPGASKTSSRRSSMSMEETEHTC
# [12] = target: DNA dC->dU-editing enzyme APOBEC-3G (Homo sapiens, UniProt Q9HC16); test: Dose Response confirmation of small molecule APOBEC3G DNA Deaminase Inhibitors via a fluorescence-based single-stranded DNA deaminase assay. [Related pubchem assays (depositor defined):AID493012, AID493028]; type: functional
# [13] = target: Heat shock protein HSP 90-alpha (Homo sapiens, UniProt P07900); type: functional, organism-based
# [14] = inhibitors of SNCA 5'UTR-driven reporter translation, confirmation, H4 neuroglioma cells, luminescence (AID 1988); type: functional, cell-based
# [15] = cytotoxicity toward DRD oncogenic fibroblasts, dose response, cell-based, non-viral oncogenic, luminescence (AID 1934); type: functional; conditions: Homo sapiens
# [16] = Luminescence Cell-Based Dose Response HTS to Identify Inhibitors of 5'UTR Stem-Loop Driven Prion Protein mRNA Translation in H4 Neuroglioblastoma Cells. [Related pubchem assays: 1827 (Project Summary), 1813 (Primary HTS)]; type: functional
# BJ [17] = test: cytotoxicity toward BJ-TERT fibroblasts, dose response, cell-based, RAS-independent, luminescence (AID 1933); type: functional; conditions: Homo sapiens
# [18] = target: Glyceraldehyde-3-phosphate dehydrogenase (Homo sapiens, UniProt P04406)
# [19] = inhibitors of firefly luciferase expression or activity, dose response, H4 neuroglioma cells, luminescence (AID 1990); type: functional, cell-based
# BJ [20] = test: cytotoxicity toward BJ-TERT-LT-ST fibroblasts, dose response, cell-based, RAS-independent, luminescence (AID 1935); type: functional; conditions: Homo sapiens;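 further: BJ fibroblasts immortalized with TERT plus LT and ST oncogenes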
# BJ [21] = test: cells; type: functional, cell-based; conditions: Homo sapiens
# X-box-binding protein 1 = target: T3, X-box-binding protein 1 (Homo sapiens, UniProt P17861); type: functional, Cricetulus griseus;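 further: confirmatory dose-response counter-screen serving a CHOP assay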
# T3 sequence (P17861 whole entry): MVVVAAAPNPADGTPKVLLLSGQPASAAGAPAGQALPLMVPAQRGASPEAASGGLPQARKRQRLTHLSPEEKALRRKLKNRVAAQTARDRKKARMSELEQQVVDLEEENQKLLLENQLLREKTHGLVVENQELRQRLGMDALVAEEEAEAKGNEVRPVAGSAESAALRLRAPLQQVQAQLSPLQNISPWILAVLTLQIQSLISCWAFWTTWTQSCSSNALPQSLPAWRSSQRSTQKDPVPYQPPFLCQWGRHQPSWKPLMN
# [22] = target: Neurotensin receptor type 1 (Homo sapiens, UniProt P30989); type: functional;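 further: Image-based confirmatory dose-response assay measuring agonist activity at NTR1; NTR1-expressing U2OS osteosarcoma cells imaged for beta-arrestin GFP spot formation; agonist potency where compounds increase beta-arrestin recruitment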
# [23] = Vero E6 cell cytotoxicity, dose response, cytotoxicity control for non-replicating M. tuberculosis project, secondary assay (AID 492998); type: functional, VeroE6; conditions: Vero C1008
# [24] = THP-1 cell cytotoxicity, dose response, cytotoxicity control for non-replicating M. tuberculosis project (AID 489025); type: functional
# [25] = microbe, parasite or virus in culture; type: functional; conditions: Mycobacterium tuberculosis
# cells [26] = type: functional
# Aspartyl aminopeptidase = target: T4, Aspartyl aminopeptidase (Plasmodium falciparum 3D7, UniProt Q8I2J3); test: Counterscreen for inhibitors of M1 and M17 aminopeptidases: QFRET-based biochemical high throughput dose response assay for inhibitors of the Plasmodium falciparum M18 Aspartyl Aminopeptidase (PFM18AAP). [Related PubChem assays: 1619 (Screening assay (M17LAP inhibitors).), 1445 (Screening assay (M1AAP inhibitors).)]
# T4 sequence (Q8I2J3 whole entry): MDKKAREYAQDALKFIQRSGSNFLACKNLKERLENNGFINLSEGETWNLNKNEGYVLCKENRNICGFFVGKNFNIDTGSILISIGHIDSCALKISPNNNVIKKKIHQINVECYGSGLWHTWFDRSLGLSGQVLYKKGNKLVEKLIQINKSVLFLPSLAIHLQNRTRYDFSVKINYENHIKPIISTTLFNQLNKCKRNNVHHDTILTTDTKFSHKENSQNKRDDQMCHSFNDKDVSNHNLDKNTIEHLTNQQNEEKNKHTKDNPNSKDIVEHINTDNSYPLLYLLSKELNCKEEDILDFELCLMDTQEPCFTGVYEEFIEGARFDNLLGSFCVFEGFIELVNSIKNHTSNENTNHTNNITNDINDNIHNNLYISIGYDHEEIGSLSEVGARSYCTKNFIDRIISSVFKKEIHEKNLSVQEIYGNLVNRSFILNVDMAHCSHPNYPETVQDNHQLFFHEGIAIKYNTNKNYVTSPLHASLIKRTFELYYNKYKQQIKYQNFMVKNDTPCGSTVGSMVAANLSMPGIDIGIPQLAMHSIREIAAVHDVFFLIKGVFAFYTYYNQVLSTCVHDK
# Procathepsin L = Procathepsin L (Homo sapiens, UniProt P07711); test: cathepsin L inhibitors, dose response, counter-screen for M1/M17 aminopeptidase inhibitor project, biochemical, QFRET, 1536-well (AID 2214)
# Aminopeptidase N = target: T5, Aminopeptidase N (Plasmodium falciparum FcB1/Columbia, UniProt O96935); test: P. falciparum M1AAP inhibitors, biochemical, fluorogenic H-Leu-NHMec substrate, 1536-well (AID 1445); parameters: species or system Plasmodium falciparum 3D7, 3D7
# T5 sequence (O96935 whole entry): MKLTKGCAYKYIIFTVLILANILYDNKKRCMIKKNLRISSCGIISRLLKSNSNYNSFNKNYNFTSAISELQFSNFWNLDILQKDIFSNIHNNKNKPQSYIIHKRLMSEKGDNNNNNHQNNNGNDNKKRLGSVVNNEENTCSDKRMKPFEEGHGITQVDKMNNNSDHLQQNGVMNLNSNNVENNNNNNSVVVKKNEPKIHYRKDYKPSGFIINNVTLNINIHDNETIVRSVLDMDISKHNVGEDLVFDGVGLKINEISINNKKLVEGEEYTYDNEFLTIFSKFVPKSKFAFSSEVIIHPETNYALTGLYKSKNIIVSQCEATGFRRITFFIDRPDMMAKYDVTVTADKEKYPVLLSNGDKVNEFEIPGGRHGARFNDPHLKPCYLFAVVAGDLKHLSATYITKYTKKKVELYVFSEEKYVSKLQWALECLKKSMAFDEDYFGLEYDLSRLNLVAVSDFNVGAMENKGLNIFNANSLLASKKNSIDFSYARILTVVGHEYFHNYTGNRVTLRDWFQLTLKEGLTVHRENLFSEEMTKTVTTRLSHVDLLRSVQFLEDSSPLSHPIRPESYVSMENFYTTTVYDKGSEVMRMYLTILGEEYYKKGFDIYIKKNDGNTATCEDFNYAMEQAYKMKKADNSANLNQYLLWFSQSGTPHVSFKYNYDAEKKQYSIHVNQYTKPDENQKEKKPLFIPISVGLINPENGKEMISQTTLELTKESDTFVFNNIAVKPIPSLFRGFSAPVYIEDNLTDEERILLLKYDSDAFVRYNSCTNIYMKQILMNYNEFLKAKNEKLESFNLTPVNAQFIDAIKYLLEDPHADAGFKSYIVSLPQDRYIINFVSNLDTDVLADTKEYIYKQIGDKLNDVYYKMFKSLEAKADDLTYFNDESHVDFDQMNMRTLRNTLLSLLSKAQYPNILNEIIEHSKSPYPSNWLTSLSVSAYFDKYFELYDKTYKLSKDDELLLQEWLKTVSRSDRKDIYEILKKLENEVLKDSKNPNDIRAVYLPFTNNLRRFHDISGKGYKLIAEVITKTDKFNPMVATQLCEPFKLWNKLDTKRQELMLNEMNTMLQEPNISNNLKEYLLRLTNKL
# Genome polyprotein = Genome polyprotein (dengue virus type 2, UniProt P29990); test: Dengue-2 NS5 methyltransferase inhibitors, primary screen, biochemical, confirmation dose response (AID 588689); type: functional
# Chain of Luciferin 4-monooxygenase (P08659 whole entry): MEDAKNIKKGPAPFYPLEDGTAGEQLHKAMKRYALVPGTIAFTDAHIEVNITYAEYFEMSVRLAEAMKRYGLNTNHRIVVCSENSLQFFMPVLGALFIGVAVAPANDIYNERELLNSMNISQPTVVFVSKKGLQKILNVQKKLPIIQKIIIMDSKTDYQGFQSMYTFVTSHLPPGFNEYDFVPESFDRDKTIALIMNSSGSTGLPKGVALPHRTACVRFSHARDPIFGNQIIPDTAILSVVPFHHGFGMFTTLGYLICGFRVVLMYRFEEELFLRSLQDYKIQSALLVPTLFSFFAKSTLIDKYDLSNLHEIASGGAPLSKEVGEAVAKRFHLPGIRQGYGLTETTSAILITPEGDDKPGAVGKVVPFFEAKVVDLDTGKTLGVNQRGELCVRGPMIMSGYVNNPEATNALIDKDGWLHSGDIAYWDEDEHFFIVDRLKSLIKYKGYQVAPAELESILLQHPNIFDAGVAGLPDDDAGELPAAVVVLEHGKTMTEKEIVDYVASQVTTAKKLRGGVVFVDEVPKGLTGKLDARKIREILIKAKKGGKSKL
# Chain of Peroxisome proliferator-activated receptor gamma/Nuclear receptor coactivator 2 (P37231 whole entry): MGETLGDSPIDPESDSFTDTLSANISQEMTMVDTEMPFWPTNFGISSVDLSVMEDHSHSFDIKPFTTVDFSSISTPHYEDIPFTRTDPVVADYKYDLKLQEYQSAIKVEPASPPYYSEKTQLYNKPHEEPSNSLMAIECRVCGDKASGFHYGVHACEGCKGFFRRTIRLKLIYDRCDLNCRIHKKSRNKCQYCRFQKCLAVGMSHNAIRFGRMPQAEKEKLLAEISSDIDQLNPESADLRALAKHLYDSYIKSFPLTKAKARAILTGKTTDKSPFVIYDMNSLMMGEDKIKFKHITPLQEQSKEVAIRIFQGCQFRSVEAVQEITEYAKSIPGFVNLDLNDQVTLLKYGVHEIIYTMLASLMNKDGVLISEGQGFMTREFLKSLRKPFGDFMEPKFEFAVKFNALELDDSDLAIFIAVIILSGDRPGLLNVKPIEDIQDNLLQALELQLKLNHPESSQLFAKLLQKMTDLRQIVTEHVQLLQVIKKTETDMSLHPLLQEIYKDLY
# Chain of Peroxisome proliferator-activated receptor gamma/Nuclear receptor coactivator 2 (Q15596 whole entry, further chain): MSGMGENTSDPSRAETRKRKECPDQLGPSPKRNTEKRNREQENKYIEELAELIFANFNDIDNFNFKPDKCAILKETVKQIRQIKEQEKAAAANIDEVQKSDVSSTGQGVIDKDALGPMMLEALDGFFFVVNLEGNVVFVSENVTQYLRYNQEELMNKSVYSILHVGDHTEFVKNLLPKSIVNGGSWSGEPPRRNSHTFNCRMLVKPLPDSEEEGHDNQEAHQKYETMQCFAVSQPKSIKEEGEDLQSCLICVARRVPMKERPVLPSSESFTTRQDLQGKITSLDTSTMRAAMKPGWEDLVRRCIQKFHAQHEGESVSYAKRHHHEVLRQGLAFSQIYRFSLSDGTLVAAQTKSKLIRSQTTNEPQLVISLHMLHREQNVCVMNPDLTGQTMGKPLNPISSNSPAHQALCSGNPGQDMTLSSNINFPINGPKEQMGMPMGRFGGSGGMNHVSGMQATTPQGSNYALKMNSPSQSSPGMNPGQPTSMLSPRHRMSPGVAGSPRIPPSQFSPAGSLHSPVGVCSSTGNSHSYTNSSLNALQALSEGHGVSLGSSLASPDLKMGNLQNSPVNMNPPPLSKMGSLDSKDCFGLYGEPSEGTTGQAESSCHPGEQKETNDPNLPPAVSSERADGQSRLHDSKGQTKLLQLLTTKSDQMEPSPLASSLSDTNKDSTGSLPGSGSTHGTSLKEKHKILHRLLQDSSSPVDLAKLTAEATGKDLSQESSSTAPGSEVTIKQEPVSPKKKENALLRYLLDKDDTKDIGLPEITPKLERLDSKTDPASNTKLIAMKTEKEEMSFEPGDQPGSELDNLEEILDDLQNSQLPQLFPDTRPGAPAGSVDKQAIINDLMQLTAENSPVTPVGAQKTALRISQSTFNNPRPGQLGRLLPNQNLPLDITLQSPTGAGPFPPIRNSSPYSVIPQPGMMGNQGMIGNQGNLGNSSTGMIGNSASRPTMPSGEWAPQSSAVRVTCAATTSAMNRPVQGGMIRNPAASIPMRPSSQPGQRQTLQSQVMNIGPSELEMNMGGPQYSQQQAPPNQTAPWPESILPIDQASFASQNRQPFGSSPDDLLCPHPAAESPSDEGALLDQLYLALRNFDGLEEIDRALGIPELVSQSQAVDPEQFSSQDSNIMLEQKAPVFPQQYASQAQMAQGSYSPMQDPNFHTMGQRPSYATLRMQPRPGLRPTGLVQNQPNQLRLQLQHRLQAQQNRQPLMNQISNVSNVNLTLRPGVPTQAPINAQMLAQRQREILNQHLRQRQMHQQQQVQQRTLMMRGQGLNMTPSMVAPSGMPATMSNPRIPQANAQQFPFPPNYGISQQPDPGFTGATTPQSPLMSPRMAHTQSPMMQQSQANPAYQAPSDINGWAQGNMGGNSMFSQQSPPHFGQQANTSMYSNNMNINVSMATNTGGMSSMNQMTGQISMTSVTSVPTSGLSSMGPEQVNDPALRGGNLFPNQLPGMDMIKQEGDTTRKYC
# Chain of Peroxisome proliferator-activated receptor gamma/Nuclear receptor coactivator 3 (P37231 whole entry): as the sequence (P37231 whole entry) above
# Chain of Peroxisome proliferator-activated receptor gamma/Nuclear receptor coactivator 3 (Q9Y6Q9 whole entry, further chain): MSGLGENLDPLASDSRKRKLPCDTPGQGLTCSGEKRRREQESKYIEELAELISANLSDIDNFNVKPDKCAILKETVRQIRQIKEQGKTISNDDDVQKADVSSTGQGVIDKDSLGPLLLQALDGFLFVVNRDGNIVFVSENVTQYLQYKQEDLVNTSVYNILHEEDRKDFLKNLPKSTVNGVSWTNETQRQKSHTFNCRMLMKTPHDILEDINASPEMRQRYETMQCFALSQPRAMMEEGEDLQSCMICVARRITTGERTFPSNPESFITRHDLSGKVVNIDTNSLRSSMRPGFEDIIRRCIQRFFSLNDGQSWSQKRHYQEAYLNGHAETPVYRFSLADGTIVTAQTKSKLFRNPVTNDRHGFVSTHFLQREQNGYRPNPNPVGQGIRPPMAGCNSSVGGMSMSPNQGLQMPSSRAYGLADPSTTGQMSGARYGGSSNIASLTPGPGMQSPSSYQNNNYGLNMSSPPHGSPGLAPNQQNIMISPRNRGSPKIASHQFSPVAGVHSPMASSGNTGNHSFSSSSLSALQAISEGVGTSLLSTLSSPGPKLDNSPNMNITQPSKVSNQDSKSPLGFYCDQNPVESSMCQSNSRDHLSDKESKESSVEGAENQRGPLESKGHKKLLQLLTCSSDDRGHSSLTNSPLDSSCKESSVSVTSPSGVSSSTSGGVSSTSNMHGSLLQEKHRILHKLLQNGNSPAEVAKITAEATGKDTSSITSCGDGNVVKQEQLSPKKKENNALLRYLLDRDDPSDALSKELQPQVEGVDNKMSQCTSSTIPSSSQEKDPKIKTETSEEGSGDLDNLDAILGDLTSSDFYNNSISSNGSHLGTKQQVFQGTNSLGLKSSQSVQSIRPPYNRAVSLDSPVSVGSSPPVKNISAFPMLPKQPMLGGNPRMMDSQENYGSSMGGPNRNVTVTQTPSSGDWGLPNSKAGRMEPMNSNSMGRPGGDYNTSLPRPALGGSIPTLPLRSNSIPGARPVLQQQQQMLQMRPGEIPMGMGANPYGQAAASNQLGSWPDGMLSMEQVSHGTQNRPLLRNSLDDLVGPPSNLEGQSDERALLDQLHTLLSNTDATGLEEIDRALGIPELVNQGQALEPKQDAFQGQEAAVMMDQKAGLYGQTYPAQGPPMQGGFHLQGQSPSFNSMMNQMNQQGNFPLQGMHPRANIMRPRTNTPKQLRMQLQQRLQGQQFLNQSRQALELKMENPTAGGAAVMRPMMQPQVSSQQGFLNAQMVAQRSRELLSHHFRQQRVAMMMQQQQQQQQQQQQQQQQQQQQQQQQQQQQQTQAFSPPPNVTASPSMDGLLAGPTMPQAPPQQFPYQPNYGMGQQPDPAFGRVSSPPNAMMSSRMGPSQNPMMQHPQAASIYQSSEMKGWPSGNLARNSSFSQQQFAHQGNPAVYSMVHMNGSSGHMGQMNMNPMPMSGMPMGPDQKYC
# Chain of Glyceraldehyde-3-phosphate dehydrogenase (P04406 whole entry): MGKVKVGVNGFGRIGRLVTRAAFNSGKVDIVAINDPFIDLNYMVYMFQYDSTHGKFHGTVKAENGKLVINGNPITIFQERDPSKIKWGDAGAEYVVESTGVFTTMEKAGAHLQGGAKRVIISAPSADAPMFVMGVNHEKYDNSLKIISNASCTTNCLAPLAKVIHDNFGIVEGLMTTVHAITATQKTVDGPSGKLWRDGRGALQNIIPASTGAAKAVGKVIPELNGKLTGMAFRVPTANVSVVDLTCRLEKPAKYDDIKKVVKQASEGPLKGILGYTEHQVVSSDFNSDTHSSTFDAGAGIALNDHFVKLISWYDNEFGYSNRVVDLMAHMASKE
compound,measurement,setting,value
Cc1cc(-c2csc(N)n2)c(C)n1CCc1ccccc1,EC50,[1],0.38 µM (active)
same,EC50,HT-1080,> 50 µM (not active)
same,IC50,[2],3.8 µM (active)
same,EC50,[3],0.449 µM (active)
same,IC50,cells [4],> 29.9 µM (inactive)
same,EC50,cells [5],> 29.9 µM (inactive)
CCSC1=C(C#N)C(=O)n2c1cc1c2CCCC1,EC50,[6],15.4 µM (active)
same,EC50,[7],13.6 µM (active)
Cc1[nH]c2ccccc2c1C(=O)C(=O)NCCOc1ccccc1,EC50,[8],> 79.4 µM (not active)
same,EC50,[9],> 79.4 µM (not active)
same,EC50,[10],> 79.4 µM (not active)
Cc1ccccc1C(=O)N/N=C/c1ccc([N+](=O)[O-])s1,AC50,[11],1.88 µM (active)
same,EC50,[1],11 µM (active)
same,EC50,HT-1080,> 50 µM (not active)
CCCCCC(=O)N(O)C1CC(=O)N(c2ccccc2)C1=O (configuration not stated),IC50,[12],59.7 µM (active)
same,AC50,[13],4.5 µM (active)
O=C(CSc1nnc(-c2ccccc2)o1)Nc1ccccc1F,EC50,[14],1.21 µM (active)
same,EC50,[15],8.39 µM (active)
same,EC50,[1],2.93 µM (active)
same,EC50,[16],1.07 µM (active)
same,EC50,BJ [17],11.5 µM (active)
same,EC50,HT-1080,> 50 µM (not active)
same,IC50,[18],> 100 µM (not active)
same,EC50,[19],4.09 µM (inconclusive)
same,EC50,BJ [20],> 150 µM (inconclusive)
same,EC50,BJ [21],7.86 µM (active)
Cn1cnnc1SCc1ccc(C(=O)N=Nc2c(O)n(C)c3ccccc23)cc1,EC50,[8],> 79.4 µM (not active)
same,EC50,[9],> 79.4 µM (not active)
same,EC50,[10],> 79.4 µM (not active)
O=C(O)CCSc1nc2cc(Br)ccc2[nH]1,EC50,[6],> 20 µM (not active)
same,EC50,[7],> 20 µM (not active)
CCOc1cc(NC(=O)c2cccs2)c(OCC)cc1N=C(S)NCC(C)C,Absolute IC50 (XBP1),X-box-binding protein 1,10 µM
C=CCn1/c(=N/C(=O)c2cccc(N3C(=O)CCC3=O)c2)sc2cccc(OC)c21,EC50,[22],> 40 µM (inactive)
O=C(Nc1ncc(Cc2ccccc2Cl)s1)C1=NCCN1,CC50,[23],> 20 µM (active)
same,CC50,[24],> 40 µM (active)
same,CC50,[25],> 40 µM (active)
same,IC50,cells [26],4.03 µM (active)
CC1CCc2c(sc3ncn(CC(=O)N=Nc4c(O)[nH]c5ccccc45)c(=O)c23)C1 (configuration not stated),Absolute IC50 (XBP1),X-box-binding protein 1,10 µM
O=C1/C(=C/c2cccs2)SC(=S)N1NS(=O)(=O)c1ccccc1,IC50,Aspartyl aminopeptidase,> 73.5 µM (not active)
same,IC50,Procathepsin L,> 59.6 µM (not active)
same,IC50,Aminopeptidase N,16.6 µM (active)
same,IC50,Genome polyprotein,57.4 µM (active)
